Laboratory results: US9586901B2, “Lactams” (UNILEVER PLC, priority 2006, dated 2017)

How the values were obtained:
[1] = system: Pseudomonas aeruginosa PAO1 (wt); assay: Pulmonary model of infection: mice challenged with bacteria/seaweed alginate through the trachea; type: in vivo
Method: The first group was treated with 5-methylene-4-phenyl-dihydro-pyrrol-2-one (C219) as 12 μg/g body weight, given as injections twice a day for three days and the second group were treated with vehicle. (p=0.0008).
This model is reminiscent of the situation in CF patients or patients with a dysfunctional muccociliary escalator.
The treatment dosage of 5-methylene-4-phenyl-dihydro-pyrrol-2-one (C219) was 12 μg/g body weight, given as injections twice a day.
Mice were challenged with Pseudomonas aeruginosa PAO1 (wt) 5.2×10^6 CFU/lung (1.3×10^8 CFU/ml). Each group holds 10 mice, the treatments with C219 and Vehicle lasted for three days. The mortality was 10% in C219 and 30% in Vehicle groups. At day 5, the surviving mice were sacrificed.

V. fischeri luxRI system = assay: N-acylated homoserine lactone (AHL) quorum sensing assay, GFP reporter strain; type: cell-based, E. coli; settings: for ID40 at 3 nM OHHL: Table 4, number in parentheses, amount of compound lowering relative activity to 40%
Method: Compounds of the present invention were compared to compounds of the prior art in order using an AHL-quorum sensing assay which utilises a reporter strain that expresses Green Fluorescent Protein (GFP) in the presence of AHL signals. The assay is performed by measuring GFP output in the presence of the compound to be measured and comparing the output to a control. By using multiple samples at varying concentrations of compound and AHL, an inhibition index of compound activity can be generated. The inhibition index used in the present example is the relative amount of compound required to reduce GFP expression to 40% of the control. The inhibition index is termed AIC40. Lower values of AIC40 represent better inhibitors of the AHL quorum sensing system.
The reporter strain of bacterium used in this assay is E. coli into which the V. fischeri luxRI system has been engineered. A gfp gene is fused to the QS controlled luxI promoter as is described in (Andersen et al., 2001, and Andersen et al, 1998).
Measurement of AIC40 (ID40 at 3 nM OHHL)
Determination of the activity of compounds using the E. coli based luxRI construct was performed as follows.
In a 15 mL plastic tube, mix 3 mL of o.n. culture of the lux reporter strain with 12 mL fresh medium, incubate at 37° C. Label six tubes, 10, 20, two 50 and two 100. To each of the tubes, add OHHL (3-oxohexanoyl homoserine lactone) to a final concentration of 10, 20, 50, or 100 nM respectively in the AB medium (add enough medium to distribute across the appropriate number of wells). To the first row of the microplate (row A), add 200 ul of the OHHL/AB mixture. To the remaining rows (B-H) add 100 ul of the OHHL/AB mixture. To the first row (A) add compounds to be tested to the 200 ul mixture of OHHL/AB. Make a dilution series in the first 7 rows by transferring 100 μL from wells in row 1 to wells in row 2 and so on. Discard the remaining 100 μL from row 7. Add 100 μL diluted lux monitor to each well. Incubate the plate 2 hours at 37° C. and measure green fluorescence using the “Victor” plate reader.
Calculate ID40 for each column. To do this, calculate the relative activity in each well. […] Make a plot for each concentration of OHHL vs. the range of compound concentrations used. Calculate the amount of compound needed to lower the relative activity to 40%, this is termed inhibiting dose 40%, ID40. For each compound an inhibition index, AIC40, is found as follows: plot ID40 against its respective AHL concentration; AIC40 is the slope of the best straight line through the plotted points and origin.
The methodology for this assay is set out in 2(a) above.

Murine L929 cells = assay: Cytotoxicity study, L929 cell number after 48 hour culture; type: cell-based; settings: for Mean (cell number): L929, 48 hour; for % Inhibition: cell number vs non-challenged cultures
Method: Murine L929 cells are established at low density and, during the testing period, grow to confluency in plastic petri dishes. 24 hours after the dishes are inoculated, the medium on the test dishes is aspirated and replaced with a medium containing the compound to be tested. The cell monolayer is then cultured for a further 48 hour period. At the end of the test period, cells are harvested from the dishes and their numbers assessed and compared with unperturbed cultures. Differences in cell numbers are expressed as a percentage inhibition in comparison to non-challenged cultures.

LasR = LasR assay (unstable gfp fused to the elastase promoter); type: cell-based; settings: Pseudomonas aeruginosa, read-out: LasR (conc)
Method: Compounds of the present invention were also assayed using a LasR assay. The LasR assay provides a measurement of quorum sensing inhibition activity. The higher the percentage inhibition. […] In the LasR assay, an unstable gfp has been fused to the elastase promoter, so that the amount of Gfp is regulated by the QS system. The plasmid is put into Pseudomonas aeruginosa which makes its own AHL signals. The assay is performed by adding the compounds to be tested to the system at the beginning of the experiment, at different concentrations. Gfp expression is measured at different times during growth, ending at the 24 h time point. The percentage fluorescence was determined at the time point when the fluorescence reached its maximum in the control, usually around 11-12 h after inoculation.

P. aeruginosa biofilm = assay: Inhibition of biofilm formation in petri dishes, P. aeruginosa; type: cell-based; settings: percent reduction of control
Method: (§1) Biofilm formation in petri dishes was measured using the following protocol as a compromise between flow cells and microtitire plate based assays. The method increases the number of replicates (relative to flow cells) that can be tested while still generating a biofilm that has typical structures, such as microcolonies, which are important as differentiated structures within the biofilm. The method consists of placing a surface, such as a glass slide (for unattached compounds) or a modified plastic coupon (for covalently attached compounds) on the bottom of a sterile petri dish and adding growth medium. The bacteria are inoculated into the dish and allowed to incubate at the appropriate temperature at 50 rpm. The medium is replaced at 24 h and allowed to incubate a further 24 h, after which time, the slides are removed and rinsed to remove loosely attached cells. For monitoring biofilm formation on glass slides, the cells are either stained with a suitable fluorescent stain and are visualised using the confocal microscope and the biofilm (as % surface coverage) is quantified, or the biofilm is stained with crystal violet, washed thoroughly to remove excess stain, and subsequently destained and the absorbance at […] is measured to determine the amount of biofilm, as a function of crystal violet staining.

E. coli biofilm = assay: Inhibition of biofilm formation in petri dishes, E. coli; type: cell-based; settings: 5 ug/ml; percent reduction of control
Method: as §1

[2] = system: Staphylococcus epidermidis; assay: S. epidermidis growth inhibition (OD600 growth curves); type: cell-based; settings: concentration of compound that significantly alters growth rate or final growth yield
Method: The growth inhibition of Staphylococcus epidermidis by the compounds of the present invention was determined by growing S. epidermidis in 96 well microtitre plates in Trypticase Soy Broth plus 0.5% glucose in a Wallac Victor2 microplate reader. Each compound was added to the wells at different concentrations and a no-compound control and a set of blank wells were also used. The OD600 was measured hourly.

S. epidermidis biofilm = assay: Inhibition of biofilm formation in petri dishes, S. epidermidis; type: cell-based; settings: 10 ug/ml; percent reduction of control
Method: as §1

[3] = Table 4 comparative results, first number of the cell, lower = better
[4] = 40 μg/ml, 30% = cytotoxic potential
[5] = inhibition index: slope of ID40 against AHL concentration, lower = better inhibitor, NE = no effect

Structure (SMILES): C=C1NC(=O)C=C1c1ccccc1 [Compound 219, 5-methylene-4-phenyl-dihydro-pyrrol-2-one]
- mortality ([1]; 12 μg/g body weight, injections twice a day for three days, 10 mice per group, Vehicle 30%): 10%
- severity (LIMP) of P aeruginosa lung infection ([1]; LIMP = fraction of total lung area showing inflammation, 12 μg/g twice a day for three days, vs vehicle): significantly reduced the severity (LIMP)
- lung bacterial load ([1]; day 5, 12 μg/g twice a day for three days, vs Vehicle, p=0.0008 (FIG. 1)): significantly reduced the lung bacterial load
- AIC40 (V. fischeri luxRI system; [3]): significantly better AIC40 values than compounds 198 and 205
- Mean (cell number) (Murine L929 cells; 10 μg/ml): 5.41E+05
- % Inhibition (Murine L929 cells; 10 μg/ml): −10.3%
- Mean (cell number) (Murine L929 cells; 20 μg/ml): 4.95E+05
- % Inhibition (Murine L929 cells; 20 μg/ml): −1.0%
- Mean (cell number) (Murine L929 cells; 40 μg/ml, E+05 = ×10^5): 4.74E+05
- % Inhibition (Murine L929 cells; [4]): 3.4%
- cytotoxicity (in words) (Murine L929 cells; compared with compounds 226 and 223): surprisingly little or no cytotoxicity

Structure (SMILES): CC(C)CN1C(=O)C(c2ccccc2)=CC1=C(Br)Br [Compound 223]
- Mean (cell number) (Murine L929 cells; 10 μg/ml): 3.31E+05
- % Inhibition (Murine L929 cells; 10 μg/ml): 24.1%
- Mean (cell number) (Murine L929 cells; 20 μg/ml): 2.94E+05
- % Inhibition (Murine L929 cells; 20 μg/ml): 32.5%
- Mean (cell number) (Murine L929 cells; 40 μg/ml, E+05 = ×10^5): 2.07E+05
- % Inhibition (Murine L929 cells; [4]): 52.4%

Structure (SMILES): CC(C)CN1C(=O)C=C(c2ccccc2)C1=C(Br)Br [Compound 226]
- Mean (cell number) (Murine L929 cells; 5 μg/ml): 3.41E+05
- % Inhibition (Murine L929 cells; 5 μg/ml): 21.8%
- Mean (cell number) (Murine L929 cells; 10 μg/ml): 2.14E+05
- % Inhibition (Murine L929 cells; 10 μg/ml): 50.9%
- Mean (cell number) (Murine L929 cells; 20 μg/ml): 2.42E+05
- % Inhibition (Murine L929 cells; 20 μg/ml): 44.4%
- Mean (cell number) (Murine L929 cells; 40 μg/ml, E+05 = ×10^5): 1.67E+05
- % Inhibition (Murine L929 cells; [4]): 61.6%

Structure (SMILES): C=C1NC(=O)C=C1c1ccc(F)cc1 [Compound 257]
- AIC40 (V. fischeri luxRI system; [3]): significantly better AIC40 values than compounds 198 and 205

Structure (SMILES): C=C1NC(=O)C=C1c1ccc(OC)cc1 [Compound 294]
- AIC40 (V. fischeri luxRI system; [3]): significantly better AIC40 values than compounds 198 and 205

Structure (SMILES): C=C1NC(=O)C=C1c1ccc(Br)cc1 [Compound 295]
- AIC40 (V. fischeri luxRI system; [3]): significantly better AIC40 values than compounds 198 and 205

Structure (SMILES): CCO [Ethanol]
- Mean (cell number) (Murine L929 cells; 4% Ethanol): 3.40E+05
- % Inhibition (Murine L929 cells; 4% Ethanol): 30.7%
- Mean (cell number) (Murine L929 cells; 5% Ethanol): 3.09E+05
- % Inhibition (Murine L929 cells; 5% Ethanol): 36.9%
- Mean (cell number) (Murine L929 cells; 7.5% Ethanol): 7.63E+04
- % Inhibition (Murine L929 cells; 7.5% Ethanol): 84.5%

Structure (SMILES): C=C1NC(=O)C=C1c1ccccc1 [drawing 20]
- inhibition at 50 µg/mL (LasR): 80%
- P. aeruginosa biofilm (P. aeruginosa biofilm; 10 ug/ml): 88% (10 ug/ml)
- E. coli biofilm (E. coli biofilm): 95% (5 ug/ml)
- minimal effective concentration [2]: 5 µg/mL
- ID40 at 3 nM OHHL (V. fischeri luxRI system; unit not given): 16.2
- AIC40 (V. fischeri luxRI system; [3]): 1.1
- AIC40 (V. fischeri luxRI system; [5]): 1.1

Structure (SMILES): C=C1NC(=O)C=C1c1ccc(F)cc1 [drawing 21]
- inhibition at 50 µg/mL (LasR): 61%
- S. epidermidis biofilm (S. epidermidis biofilm): 40% (10 ug/ml)
- P. aeruginosa biofilm (P. aeruginosa biofilm; 12.5 ug/ml): 78% (12.5 ug/ml)
- minimal effective concentration [2]: 20 µg/mL
- ID40 at 3 nM OHHL (V. fischeri luxRI system; unit not given): 17.61
- AIC40 (V. fischeri luxRI system; [3]): 4.61
- AIC40 (V. fischeri luxRI system; [5]): 4.61

Structure (SMILES): C=C1NC(=O)C=C1c1ccc(OC)cc1 [drawing 24]
- inhibition at 25 µg/mL (LasR): 36%
- P. aeruginosa biofilm (P. aeruginosa biofilm; 25 ug/ml): 76% (25 ug/ml)
- ID40 at 3 nM OHHL (V. fischeri luxRI system): 61 nM
- AIC40 (V. fischeri luxRI system; [3]): 5.4
- AIC40 (V. fischeri luxRI system; [5]): 5.4

Structure (SMILES): O=C1C=C(Br)/C(=C/Br)N1Cc1ccccc1 [reference compound]
- AIC40 (V. fischeri luxRI system; [3]): 27

Structure (SMILES): CCCC(O)C1=C(Br)/C(=C/Br)N(c2ccccc2)C1=O (stereo not shown) [reference compound]
- AIC40 (V. fischeri luxRI system; [3]): 99
